A short description of the data set: photoluminescence quantum yield (fraction); solvent given as SMILES.

For the setting “in O=P(c1ccccc1)(c1ccccc1)c1ccc2oc3ccc(P(=O)(c4ccccc4)c4ccccc4)cc3c2c1”, `c1ccc(-c2nc(-c3ccccc3)nc(-c3cc(-n4c5ccccc5c5ccccc54)cc(-n4c5ccccc5c5ccccc54)c3)n2)cc1` showed a photoluminescence quantum yield of 0.58.

`CCCCc1cc2cccc[n+]2[b-]2ccc(-c3cc[b-]4c(c3)c(CCCC)cc3cccc[n+]43)cc21` displayed a photoluminescence quantum yield (in C1CCCCC1) of 0.05.

For `C[N+]1=C(/C=C/C2=C3Oc4c(cc5c6c4CCCN6CCC5)C(c4ccccc4C(=O)O)=C3CCC2)C(C)(C)c2ccccc21`, the photoluminescence quantum yield (in CC#N) is 0.25, the photoluminescence quantum yield (in CCO) is 0.34, the photoluminescence quantum yield (in CO) was 0.35 and the photoluminescence quantum yield (in ClC(Cl)Cl) was determined as 0.51.

Consider `O=C1/C(=C2\Sc3ccc(S(=O)(=O)O)cc3C2=O)Sc2ccc(S(=O)(=O)O)cc21`, for which the photoluminescence quantum yield reads like this: (in CN(C)C=O) 0.25; (in CO) 0.008; (in CS(C)=O) 0.008; (in O) 0.005.

As to `O=C([O-])c1ccccc1-c1c2cc(Br)c(=O)c(Br)c-2oc2c(Br)c([O-])c(Br)cc12`, the photoluminescence quantum yield was 0.76 (in CC(C)O), 0.69 (in CCO), 0.6 (in CO) and 0.2 (in O).

`Fc1nc(F)c(F)c(C#Cc2ccccc2C#Cc2c(F)c(F)nc(F)c2F)c1F`: the photoluminescence quantum yield (in CC#N) was determined as 0.63.

Take `c1ccc(N(c2ccccc2)c2ccc(-c3ncc(-c4ccncc4)s3)cc2)cc1`: the photoluminescence quantum yield (in CO) came to 0.07.

As for `CCC1=C(C)C2=Cc3c4ccccc4c4n3[B-](c3ccccc3)(Oc3ccccc3-4)[N+]2=C1C` (centres undefined), the photoluminescence quantum yield reads like this: (in CC#N) 0.75; (in CCCCCC) 0.77; (in Cc1ccccc1) 0.64; (in ClCCl) 0.75.

Consider `O=C(O)c1ccccc1-c1nc(-c2ccccc2)c2ccccn12`, for which the photoluminescence quantum yield (in CC#N) came out at 0.02.

Under “in ClC(Cl)Cl”, `CCCCN1C(=O)c2cc(Br)c3c4c(Br)cc5c6c(cc(Br)c(c7c(Br)cc(c2c37)C1=O)c64)C(=O)N(CCCC)C5=O` had a photoluminescence quantum yield of 0.31.

Molecule `N#Cc1ccc(-n2c(-c3ccc(-c4ccc(-n5c6ccccc6c6ccccc65)cc4)s3)nc3c4ccccc4c4ccccc4c32)c2ccccc12` showed a photoluminescence quantum yield (in ClCCl) of 0.78.

For `[BH3-][P+]1(c2ccccc2)c2ccccc2-c2sc3ccccc3c21` (centres undefined), the photoluminescence quantum yield (in ClCCl) is 0.38.

Where the note is “in CO”, `Nc1ccc(C#Cc2ccc3ccc4ccc(C#Cc5ccc(NS(=O)(=O)c6ccc([N+](=O)[O-])cc6[N+](=O)[O-])cc5)c5ccc2c3c45)cc1` returned a photoluminescence quantum yield of 0.016.

Regarding `CC(C)(C)c1ccc(-c2sc3c(-c4ccc(C(C)(C)C)cc4)c4n(c3c2-c2ccc(C(C)(C)C)cc2)[B-](F)(F)[N+]2=Cc3c(-c5ccc(C(C)(C)C)cc5)c5sc(-c6ccc(C(C)(C)C)cc6)c(-c6ccc(C(C)(C)C)cc6)c5n3[B-](F)(F)[N+]2=C4)cc1`, the photoluminescence quantum yield reads like this: (in CC#N) 0.49; (in CCCCCC) 0.64; (in CN(C)C=O) 0.45; (in Cc1ccccc1) 0.59; (in ClCCl) 0.6.

Take `COc1ccc2c(c1)C(=O)c1cc(OC)cc(OC)c1-2`: the photoluminescence quantum yield is 0.0024 (in C1CCCCC1), 0.0001 (in CC#N) and 0 (in CCO).

With `CSc1sc(C(N)=O)c2nnn(C)c(=O)c12`, the photoluminescence quantum yield reads like this: (in C1CCOC1) 0.5; (in CC#N) 0.38; (in CCO) 0.22; (in CN(C)C=O) 0.27; (in CO) 0.16; (in CS(C)=O) 0.1.

Turning to `Cc1cc2cc3cc(C)c(C)cc3cc2cn1`, the photoluminescence quantum yield (in CCO) was 0.44.

On to `COc1cc(-c2cnc(-c3cnc4ccccc4c3)o2)cc(OC)c1OC`, for which the photoluminescence quantum yield (in ClCCl) was 0.76.

Where the note is “in C1CCCCC1”, `c1cc(-c2ccc3c(c2)CCCO3)ccc1-c1ccc2c(c1)CCCO2` had a photoluminescence quantum yield of 0.6.

With `CCCC1=Cc2nc1ccc1[nH]c(cc1CCC)c1nc(c(NC(C)=O)cc3[nH]c2cc3CCC)C(CCC)=C1`, for the setting “in Cc1ccccc1”, the photoluminescence quantum yield worked out at 0.1.

With `C1=Cc2ccccc2C(=Cc2ccc(-c3cc(-c4ccc(C=C5c6ccccc6C=Cc6ccccc65)cc4)cc(-c4ccc(C=C5c6ccccc6C=Cc6ccccc65)cc4)c3)cc2)c2ccccc21`, the photoluminescence quantum yield (in C1CCOC1) was 0.0023.

For `O=Cc1cc(C=O)c2ccc3c(N4CCCCC4)cc(N4CCCCC4)c4ccc1c2c43`, the photoluminescence quantum yield runs as follows: (in C1COCCO1) 0.92; (in CC#N) 0.88; (in CC(C)=O) 0.9; (in CCCCCC) 0.93; (in CCO) 0.87; (in CCOC(C)=O) 0.93. Further, the photoluminescence quantum yield worked out at 0.83 (in CO), 0.75 (in CS(C)=O), 0.94 (in Cc1ccccc1) and 0.91 (in ClCCl).

As for `COc1ccc(-c2c(-c3ccc(OC)cc3)c3c4c(cccc4c2-c2ccccc2)C(=O)c2ccccc2-3)cc1`, the photoluminescence quantum yield reads like this: (in CC#N) 0.55; (in CO) 0.05.

In turn, `CCOC(=O)c1sc(-c2ccc(-c3cc(C4CC4)c(C(=O)OCC)s3)s2)cc1C1CC1` gave a photoluminescence quantum yield (in ClCCl) of 0.21.

As to `COC(=O)c1[nH]c(-c2ccccc2)c2nnc3ccsc3c12`, for the setting “in ClCCl”, the photoluminescence quantum yield is 0.111.

In turn, `CCC1=C(C)C2=C(/C=C/c3ccc(OC)cc3)c3c(C)c(CC)c(C)n3[B-](F)(F)[N+]2=C1C` displayed a photoluminescence quantum yield (in ClCCl) of 0.01.

In turn, `C1=Cc2ccc3ccccc3c2NB1c1ccccc1` returned a photoluminescence quantum yield (in C1CCCCC1) of 0.57.

Consider `CN(C)c1ccc(/C=C/C=C/c2ccc([N+](=O)[O-])c(O)c2)cc1`, for which the photoluminescence quantum yield runs as follows: (in C1CCCCC1) 0.13; (in C1COCCO1) 0.03; (in CCCCCCC) 0.1; (in Cc1ccccc1) 0.11.

Consider `COc1ccc(-c2cc(/C=C/c3ccc(N(c4ccccc4)c4ccccc4)cc3)c(C#N)c(N3CCCCC3)c2)cc1`, for which, under “in CS(C)=O”, the photoluminescence quantum yield was determined as 0.57.

For the molecule `CC1=[N+]2C(=c3c4c5ccccc5cc5cccc(c6cc(C)n(c36)[B-]2(F)F)c54)C=C1`, the photoluminescence quantum yield is, setting by setting: (in C1CCOC1) 0.48; (in CCCCCC) 0.48; (in CO) 0.1; (in CS(C)=O) 0.03; (in ClC(Cl)Cl) 0.4; (in ClCCl) 0.45.

For the molecule `N#Cc1c(N2CCCCC2)cc(-c2ccc3c(c2)OCO3)c2c1-c1cccc3cccc-2c13`, for the setting “in O”, the photoluminescence quantum yield turned out to be 0.3.

Take `CCC1=C(C)C2=Cc3cc(I)cn3[B-](F)(F)[N+]2=C1C`: the photoluminescence quantum yield runs as follows: (in C1CCCCC1) 0.113; (in CC(C)=O) 0.063; (in CCO) 0.07; (in CCOC(C)=O) 0.078; (in CO) 0.069; (in OCC(F)(F)F) 0.05.

`C[Si]1(C)O[Si](C)(C)c2cc3nc4ccccc4c(-c4ccccc4)c3cc2[Si](C)(C)O1` returned a photoluminescence quantum yield (in ClCCl) of 0.42.

Consider `c1cc2ccc3ccc(-c4ccc(-c5nnc(-c6ccc(-c7nnc(-c8ccc(-c9ccc%10ccc%11cccc%12ccc9c%10c%11%12)s8)o7)cc6)o5)s4)c4ccc(c1)c2c34`, for which the photoluminescence quantum yield (in ClC(Cl)Cl) worked out at 0.06.

Where the note is “in ClCCl”, `Cc1nc(-c2ccccc2O)n2c1CCCC2` yielded a photoluminescence quantum yield of 0.63.

For the molecule `O=C1c2ccc3c4ccc5c6c(ccc(c7ccc(c2c37)C(=O)N1c1ccc(Cl)cc1)c64)C(=O)N(c1ccc(Cl)cc1)C5=O`, the photoluminescence quantum yield (in CN(C)C=O) was found to be 0.84.

Under “in Cc1ccccc1”, `Cc1cc(-c2nnc(-c3c(C(C)C)cc(C(C)C)cc3C(C)C)o2)ccc1-n1c2ccccc2c2ccccc21` registered a photoluminescence quantum yield of 0.38.

For the molecule `CN(C)c1ccc(/C=C/c2nc(N3CCOCC3)c3c([n+]2[O-])CCCC3)cc1`, the photoluminescence quantum yield (in ClCCl) amounted to 0.01.

`CC(C)(C)c1ccc2c(c1)oc1nc3oc4ccc(-n5c6ccccc6c6ccccc65)cc4c3cc12`: the photoluminescence quantum yield (in ClC(Cl)Cl) was determined as 0.075.

`C(#Cc1ccccc1)C(C#Cc1ccccc1)=Cc1cccc(C=C(C#Cc2ccccc2)C#Cc2ccccc2)c1` had a photoluminescence quantum yield (in ClC(Cl)Cl) of 0.06.

For `C1CCN2CCCn3c2c(c2c3=NCCN=2)C1`, the photoluminescence quantum yield was 0.36 (in CCCCCC) and 0.2 (in CS(C)=O).

Take `O=Cc1c(O)c(-c2nc3ccccc3s2)cc2ccccc12`: the photoluminescence quantum yield is, setting by setting: (in C1CCOC1) 0.066; (in CC#N) 0.052; (in CC(C)=O) 0.053; (in CCO) 0.07; (in CCOC(C)=O) 0.068; (in CN(C)C=O) 0.077. Besides, the photoluminescence quantum yield (in CO) turned out to be 0.061, the photoluminescence quantum yield (in Cc1ccccc1) amounted to 0.068, the photoluminescence quantum yield (in ClC(Cl)Cl) came to 0.065 and the photoluminescence quantum yield (in ClCCl) stood at 0.109.

Turning to `CC1=CC(C)=[N+]2C1=C(c1ccccc1)c1c(C)cc(/C=C/c3ccc(O)cc3)n1[B-]2(F)F`, the photoluminescence quantum yield (in O) is 0.37.

With `C(S/C=C/c1ccc(/C=C/SC=C(c2ccccc2)c2ccccc2)cc1)=C(c1ccccc1)c1ccccc1`, the photoluminescence quantum yield (in ClCCl) was 0.058.

`CN(C)c1ccc(-c2nc3c(c4c2-c2ccccc2CC4)-c2ccccc2CC3)cc1` yielded a photoluminescence quantum yield (in C1CCOC1) of 0.396; a photoluminescence quantum yield (in CC#N) of 0.182; a photoluminescence quantum yield (in CCCCCC) of 0.05; a photoluminescence quantum yield (in CCOC(C)=O) of 0.164; a photoluminescence quantum yield (in CO) of 0.08; a photoluminescence quantum yield (in CS(C)=O) of 0.215. The photoluminescence quantum yield is, setting by setting: (in Cc1ccccc1) 0.112; (in ClCCl) 0.269.

Turning to `C(=C\c1cnc2ccccc2n1)/c1cnccn1`, the photoluminescence quantum yield runs as follows: (in CCCCCC) 0.0014; (in CCO) 0.0012; (in CO) 0.001; (in ClCCl) 0.0014; (in c1ccccc1) 0.0015.

In the case of `COC(=O)c1ccc(C2=C(/C=C/c3ccc(OC)cc3)O[B-](F)(F)[O+]=C2/C=C/c2ccc(OC)cc2)cc1`, the photoluminescence quantum yield (in ClCCl) turned out to be 0.43.

Values taken from the Deep4Chem optical property database.
